# Where a name gives a salt, the structure may show the parent alone. Read-outs that look alike come from different tables or passages of the source.
# Assays:
# [1] = target: T1, SARS-CoV-2 PLpro (nsp3 1564–1878) (Severe acute respiratory syndrome coronavirus 2, UniProt P0DTD1); test: biochemical; parameters: FRET-quenched peptide (Pro3) cleavage by PLpro, 10 min pre-incubation, slope over 20 min, normalised to no-compound control; details: low concentration screen, read-out: % of control remaining
# [2] = target: T1, SARS-CoV-2 PLpro (nsp3 1564–1878); test: biochemical; parameters: FRET-quenched peptide (Pro3) cleavage by PLpro, 10 min pre-incubation, slope over 20 min, normalised to no-compound control; details: high concentration screen, read-out: % of control remaining
structure (smiles),measurement,setting,value
CCCCc1nc(Cl)c(CO)n1Cc1ccc(-c2ccccc2-c2nnn[nH]2)cc1 [Losartan (potassium)],remaining activity at 1.25 µM,[1]; Well no.=8239,101%
same,remaining activity at 3.75 µM,[2]; Well no.=8239,104%
CC(C)NCC(O)COc1ccc(COCCOC(C)C)cc1 (stereo not shown) [Bisoprolol],remaining activity at 1.25 µM,[1]; Well no.=5109,96.8%
same,remaining activity at 3.75 µM,[2]; Well no.=5109,98.6%
CCCCCCCCCCCCCCCC(=O)C(F)(F)F [PACOCF3],remaining activity at 1.25 µM,[1]; Well no.=4390,102%
same,remaining activity at 3.75 µM,[2]; Well no.=4390,100%
CC1(C)[C@@H](O[C@H]2O[C@H](C(=O)O)[C@@H](O)[C@H](O)[C@H]2O[C@@H]2O[C@H](C(=O)O)[C@@H](O)[C@H](O)[C@H]2O)CC[C@]2(C)[C@H]3C(=O)C=C4[C@@H]5C[C@@](C)(C(=O)O)CC[C@]5(C)CC[C@@]4(C)[C@]3(C)CC[C@@H]12 [Ammonium Glycyrrhizinate],remaining activity at 1.25 µM,[1]; Well no.=8386,97.7%
same,remaining activity at 3.75 µM,[2]; Well no.=8386,99%
C[C@@H](NC(=O)/C(C#N)=C/c1ccc(O)c(O)c1)c1ccccc1 [Tyrphostin AG 527],remaining activity at 1.25 µM,[1]; Well no.=1431,97.8%
same,remaining activity at 3.75 µM,[2]; Well no.=1431,100%
c1ccc2c(c1)CN1CCCC1=N2 [Desoxypeganine],remaining activity at 1.25 µM,[1]; Well no.=3278,98%
same,remaining activity at 3.75 µM,[2]; Well no.=3278,97.7%
C=CCN1CCc2nc(N)sc2CC1 [B-HT 920],remaining activity at 1.25 µM,[1]; Well no.=8195,99.9%
same,remaining activity at 3.75 µM,[2]; Well no.=8195,100%
Fc1ccc(-c2nc3n(c2-c2ccncc2)CCS3)cc1 [SKF-86002],remaining activity at 1.25 µM,[1]; Well no.=2652,96.2%
same,remaining activity at 3.75 µM,[2]; Well no.=2652,97.9%
NCCCNCCSP(=O)(O)O [Amifostine],remaining activity at 1.25 µM,[1]; Well no.=115,103%
same,remaining activity at 1.25 µM,[1]; Well no.=2115,99.3%
same,remaining activity at 3.75 µM,[2]; Well no.=115,104%
same,remaining activity at 3.75 µM,[2]; Well no.=2115,102%
O=C(c1ccccc1)c1ccc2n1CCC2C(=O)O (stereo not shown) [Ketorolac tris salt],remaining activity at 1.25 µM,[1]; Well no.=925,108%
same,remaining activity at 3.75 µM,[2]; Well no.=925,103%
COC(=O)N[C@H](C(=O)N[C@@H](Cc1ccccc1)[C@@H](O)CN(Cc1ccc(-c2ccccn2)cc1)NC(=O)[C@@H](NC(=O)OC)C(C)(C)C)C(C)(C)C [Atazanavir sulfate],remaining activity at 1.25 µM,[1]; Well no.=5245,96.5%
same,remaining activity at 3.75 µM,[2]; Well no.=5245,101%
Cc1[nH]c2ccccc2c1C1=C(NCCc2ccc(F)cc2)C(=O)N(C)C1=O [IM-12],remaining activity at 1.25 µM,[1]; Well no.=5776,99.9%
same,remaining activity at 3.75 µM,[2]; Well no.=5776,100%
N[C@@H](CC(=O)O)C(=O)O [L -Aspartic acid hemimagnesium salt hydrate],remaining activity at 1.25 µM,[1]; Well no.=5897,103%
same,remaining activity at 3.75 µM,[2]; Well no.=5897,105%
Nc1nc(-n2cccn2)nc(-n2cccn2)c1Br [Taminadenant],remaining activity at 1.25 µM,[1]; Well no.=8565,99.5%
same,remaining activity at 3.75 µM,[2]; Well no.=8565,90.5%
CC[C@H]1CN2CCc3cc(OC)c(OC)cc3[C@@H]2C[C@@H]1C[C@H]1NCCc2cc(O)c(OC)cc21,remaining activity at 1.25 µM,[1]; Well no.=3501,96.1%
same,remaining activity at 3.75 µM,[2]; Well no.=3501,88.7%
CN1CCC(C(=O)c2cccc(NC(=O)c3c(F)cc(F)cc3F)n2)CC1 [Lasmiditan (hydrochloride)],remaining activity at 1.25 µM,[1]; Well no.=8055,97%
same,remaining activity at 3.75 µM,[2]; Well no.=8055,98.4%
"O=S1(=O)N(CCN2CC=C(c3c[nH]c4cc(F)ccc34)CC2)c2cccc3c2N1CCC3 [LY-367,265]",remaining activity at 1.25 µM,[1]; Well no.=785,100%
same,remaining activity at 3.75 µM,[2]; Well no.=785,103%
"O=c1cc(N2CCOCC2)oc2c1ccc1ccccc12 [NU 7026 - 2-(4-Morpholinyl)-4H-naphthol[1,2-b]pyran-4-one]",remaining activity at 1.25 µM,[1]; Well no.=2630,92.2%
same,remaining activity at 3.75 µM,[2]; Well no.=2630,92.6%
Fc1ccc(-c2c3cccc(C(F)(F)F)c3nn2Cc2ccc(F)cc2Cl)cc1 [2-(2-chloro-4-fluorobenzyl)-3-(4-fluorophenyl)-7-(trifluoromethyl)-2H-indazole],remaining activity at 1.25 µM,[1]; Well no.=6061,93.7%
same,remaining activity at 3.75 µM,[2]; Well no.=6061,94.4%
CC[C@H]1OC(=O)[C@H](C)[C@@H](O[C@H]2C[C@@](C)(OC)[C@@H](O)[C@H](C)O2)[C@H](C)[C@@H](O[C@@H]2O[C@H](C)C[C@H](N(C)C)[C@H]2O)[C@](C)(OC)C[C@@H](C)C(=O)[C@H](C)[C@@H](O)[C@]1(C)O [Clarithromycin],remaining activity at 1.25 µM,[1]; Well no.=2267,89%
same,remaining activity at 3.75 µM,[2]; Well no.=2267,89.2%
COc1cc(/C=C/C(=O)O)ccc1O [Ferulic acid (sodium)],remaining activity at 1.25 µM,[1]; Well no.=8535,107%
same,remaining activity at 3.75 µM,[2]; Well no.=8535,106%
Clc1ccc(COC(Cn2ccnc2)c2ccc(Cl)cc2Cl)c(Cl)c1 (stereo not shown) [Miconazole nitrate],remaining activity at 1.25 µM,[1]; Well no.=4666,102%
same,remaining activity at 3.75 µM,[2]; Well no.=4666,103%
CCNC1(C(N)=O)CCN(c2ncnc3c2nc(-c2ccccc2Cl)n3-c2ccc(Cl)cc2)CC1 [Otenabant (CP-945598) HCl],remaining activity at 1.25 µM,[1]; Well no.=8494,103%
same,remaining activity at 3.75 µM,[2]; Well no.=8494,108%
Nc1ccc(O)c(C(=O)O)c1 [5-Aminosalicylic acid],remaining activity at 1.25 µM,[1]; Well no.=2121,105%
same,remaining activity at 3.75 µM,[2]; Well no.=2121,104%
OC[C@@H]1[C@@H](O)[C@H](O)[C@H]2[C@@H](O)CCN21,remaining activity at 1.25 µM,[1]; Well no.=3085,104%
same,remaining activity at 3.75 µM,[2]; Well no.=3085,105%
CCN(CC)CCOCCOC(=O)C1(c2ccccc2)CCCC1 [Carbetapentane citrate],remaining activity at 1.25 µM,[1]; Well no.=368,90.8%
same,remaining activity at 3.75 µM,[2]; Well no.=368,92.5%
COc1cc(Nc2ncc3c(n2)-c2ccc(Cl)cc2C(c2c(F)cccc2OC)=NC3)ccc1C(=O)O [Alisertib],remaining activity at 1.25 µM,[1]; Well no.=6164,103%
same,remaining activity at 3.75 µM,[2]; Well no.=6164,103%
"O=S(=O)(c1cccc2cnccc12)N1CCCNCC1 [HA 1077, Dihydrochloride Fasudil]",remaining activity at 1.25 µM,[1]; Well no.=2646,94.1%
same,remaining activity at 3.75 µM,[2]; Well no.=2646,100%
Cc1ccc(C(=O)N(CCCN)[C@@H](c2nc3cc(Cl)ccc3c(=O)n2Cc2ccccc2)C(C)C)cc1 [Ispinesib (SB-715992)],remaining activity at 1.25 µM,[1]; Well no.=5243,94.6%
same,remaining activity at 3.75 µM,[2]; Well no.=5243,92.3%
N=C(N)N/N=C/c1c(Cl)cccc1Cl [Guanabenz (Acetate)],remaining activity at 1.25 µM,[1]; Well no.=6652,94.5%
same,remaining activity at 3.75 µM,[2]; Well no.=6652,100%
COC(=O)[C@@H]1CC2=CC(=O)CC[C@]2(C)[C@@]23O[C@@H]2C[C@@]2(C)[C@@H](CC[C@@]24CCC(=O)O4)[C@H]13 [Eplerenone],remaining activity at 1.25 µM,[1]; Well no.=5343,97.5%
same,remaining activity at 3.75 µM,[2]; Well no.=5343,96.5%
COc1ccccc1N1CCN(CCN(C(=O)c2ccc(I)cc2)c2ccccn2)CC1 [p-MPPI hydrochloride],remaining activity at 1.25 µM,[1]; Well no.=1137,97.8%
same,remaining activity at 3.75 µM,[2]; Well no.=1137,102%
CCCCCCCCCCCCCCCCOCC(CO)OC(C)=O (stereo not shown) [1-Hexadecyl-2-O-acetyl-glycerol],remaining activity at 1.25 µM,[1]; Well no.=4238,95.2%
same,remaining activity at 3.75 µM,[2]; Well no.=4238,98.7%
CS(=O)(=O)c1ccc(C2=C(c3ccccc3)C(=O)OC2)cc1 [Rofecoxib],remaining activity at 1.25 µM,[1]; Well no.=1724,101%
same,remaining activity at 3.75 µM,[2]; Well no.=1724,100%

# Reference: article PMC8286840, “Identifying SARS-CoV-2 antiviral compounds by screening for small molecule inhibitors of Nsp3 papain-like protease” (Biochemical Journal, 2021)
